Assay results taken from patent publication US4606911A, “Pharmaceutical composition for the prevention of dental caries” (Rohto Pharmaceutical Co. Ltd., priority 1984, dated 1986).
Converted amounts (≈) assume the structure as drawn. “Also recorded” adds a separate entry of the source.

Experiments:
Format in all cases: cell-based
[1] = system: Streptococcus mutans OMZ 176; test: Antibacterial activity (MIC, growth in BHI medium); set-up: key to Antibacterial activity (growth): -: grow; ±: slightly grow; +: not grow; details: for antibacterial activity to S. mutans (in words): text statement
Protocol: (§1) To a test tube was charged 3.8 ml of Brain Heart Infusion (BHI) medium, and 100 μl of a sample solution containing oleanolic, ursolic or glycyrrhetic acid and 100 μl of pre-incubated culture of bacterium selected from those listed below were added thereto. The mixture was incubated at 37° C. and then allowed to stand over night. The extent of the growth of bacterium was observed after two or five days.
Streptococcus mutans OMZ 176

[2] = system: Serratia marcescens IFO 12648; test: Antibacterial activity (MIC, growth in BHI medium); set-up: key to Antibacterial activity (growth): -: grow; ±: slightly grow; +: not grow
Protocol: as §1, with “days. The MIC value was determined for each sample and summarized in Table 2. |Serratia marcescens IFO 12648” for “days.”

Esherichia coli K12 = test: Antibacterial activity (MIC, growth in BHI medium); set-up: key to Antibacterial activity (growth): -: grow; ±: slightly grow; +: not grow
Protocol: as §1
Esherichia coli K12 (Gram negative)

[3] = system: S. mutans OMZ 176 (serotype d); test: microbe, parasite or virus in culture
In short: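 S. mutans OMZ 176 (serotype d) grown 20 h at 37° C in BHI with 5% sucrose plus compound (in water or DMSO) in tubes slanted at 30°. Adhered and non-adhered cells resuspended in 0.5 M NaOH and read at 660 nm. Adherence inhibition computed against vehicle control.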

[4] = system: Streptococcus salivarius ATCC 9222; test: Antibacterial activity (MIC, growth in BHI medium); set-up: key to Antibacterial activity (growth): -: grow; ±: slightly grow; +: not grow
Protocol: as §1, with “days. The MIC value was determined for each sample and summarized in Table 2. |Streptococcus salivarius ATCC 9222” for “days.”

bacterial cells = test: Adherence of bacterial cells to the surface of an extracted tooth; details: extracted tooth suspended in a culture medium containing sucrose
[5] = system: Bacillus megaterium QM B1551; test: Antibacterial activity (MIC, growth in BHI medium); set-up: key to Antibacterial activity (growth): -: grow; ±: slightly grow; +: not grow
Protocol: as §1, with “days. The MIC value was determined for each sample and summarized in Table 2. |Bacillus megaterium QM B1551” for “days.”

[6] = Streptococcus mutans, read-out: Adherence-inhibiting activity (AIP)

SMILES: CC1(C)CC[C@]2(C(=O)O)CC[C@]3(C)C(=CC[C@@H]4[C@@]5(C)CC[C@H](O)C(C)(C)[C@@H]5CC[C@]43C)[C@@H]2C1 [Oleanolic acid]
- Antibacterial activity (growth) ([1]; 10 μg/ml): -
- antibacterial activity at 10 μg/ml (in words) ([1]; 10 μg/ml): ineffective for exhibiting antibacterial activity
- Antibacterial activity (growth) ([1]; 25 μg/ml): -
- Antibacterial activity (growth) ([1]; 50 μg/ml): ±
- Antibacterial activity (growth) ([1]; 100 μg/ml): ±
- Antibacterial activity (growth) ([1]; 200 μg/ml): ±
- Antibacterial activity (growth) ([1]; 400 μg/ml): ±
- MIC ([1]; Streptococcus mutans, OMZ176, Streptococcus mutans OMZ 176, BHI, 37° C., read-out: MIC (minimum inhibitory concentration)): 400 µg/mL (≈ 876 µM)
- antibacterial activity to S. mutans (in words) [1]: also exhibit the selective activity on S. mutans, although the magnitude of the activity is each less than that of glycyrrthetic acid
- antibacterial activity to S. mutans (in words) ([1]; listed as oleanolic acid): have both of the adherence-inhibiting activity and the selective antibacterial activity to S. mutans; also recorded: have both activities
- Antibacterial activity (growth) ([2]; 10 μg/ml): -
- Antibacterial activity (growth) ([2]; 25 μg/ml): -
- Antibacterial activity (growth) ([2]; 50 μg/ml): -
- Antibacterial activity (growth) ([2]; 100 μg/ml): -
- Antibacterial activity (growth) ([2]; 200 μg/ml): -
- Antibacterial activity (growth) ([2]; 400 μg/ml): -
- MIC ([2]; IFO12648, Serratia marcescens, BHI, 37° C., read-out: MIC (minimum inhibitory concentration)): > 400 µg/mL
- Antibacterial activity (growth) (Esherichia coli K12; 10 μg/ml): -
- Antibacterial activity (growth) (Esherichia coli K12; 25 μg/ml): -
- Antibacterial activity (growth) (Esherichia coli K12; 50 μg/ml): -
- Antibacterial activity (growth) (Esherichia coli K12; 100 μg/ml): -
- Antibacterial activity (growth) (Esherichia coli K12; 200 μg/ml): -
- Antibacterial activity (growth) (Esherichia coli K12; 400 μg/ml): -
- MIC (Esherichia coli K12; Esherichia coli, BHI, 37° C., read-out: MIC (minimum inhibitory concentration)): > 400 µg/mL
- minimal effective concentration ([3]; Streptococcus mutans, 20 h, read-out: concentration at which adherence of the bacterial cells is inhibited): 10 µg/mL
- inhibition at 10 µg/mL [3, 6]: > 50%
- inhibition at 20 µg/mL [3, 6]: > 50%
- inhibition at 30 µg/mL [3, 6]: > 50%
- inhibition at 50 µg/mL [3, 6]: > 50%
- inhibition at 100 µg/mL [3, 6]: > 50%
- adherence-inhibiting activity (in words) ([3]; text statement, listed as oleanolic acid): have both of the adherence-inhibiting activity and the selective antibacterial activity to S. mutans; also recorded: have both activities
- Antibacterial activity (growth) ([4]; 10 μg/ml): -
- Antibacterial activity (growth) ([4]; 25 μg/ml): -
- Antibacterial activity (growth) ([4]; 50 μg/ml): -
- Antibacterial activity (growth) ([4]; 100 μg/ml): -
- Antibacterial activity (growth) ([4]; 200 μg/ml): ±
- Antibacterial activity (growth) ([4]; 400 μg/ml): +
- MIC ([4]; ATCC9222, Streptococcus salivarius, BHI, 37° C., read-out: MIC (minimum inhibitory concentration)): 400 µg/mL (≈ 876 µM)
- adherence of bacterial cells to the surface of an extracted tooth (bacterial cells): completely inhibited
- Antibacterial activity (growth) ([5]; 10 μg/ml): -
- Antibacterial activity (growth) ([5]; 25 μg/ml): -
- Antibacterial activity (growth) ([5]; 50 μg/ml): -
- Antibacterial activity (growth) ([5]; 100 μg/ml): -
- Antibacterial activity (growth) ([5]; 200 μg/ml): -
- Antibacterial activity (growth) ([5]; 400 μg/ml): -
- MIC ([5]; Priestia megaterium, QMB1551, Bacillus megaterium, BHI, 37° C., read-out: MIC (minimum inhibitory concentration)): > 400 µg/mL
